Assay results reported in patent US20040053355A1, “Modular approach to on-line synthesis, drug discovery and biochemical transformations using immobilized enzyme reactors” (priority 2000, published 2004).

Assays:
[1] = target: T1, DBH-Glut-P IMER (immobilized dopamine beta-hydroxylase) (Bos taurus, UniProt P15101); assay: On-line DBH-Glut-P immobilized enzyme reactor (DBH-Glut-P IMER) HPLC system; assay type: biochemical, bovine
T1 construct: purchased
T1 sequence (P15101 1-610): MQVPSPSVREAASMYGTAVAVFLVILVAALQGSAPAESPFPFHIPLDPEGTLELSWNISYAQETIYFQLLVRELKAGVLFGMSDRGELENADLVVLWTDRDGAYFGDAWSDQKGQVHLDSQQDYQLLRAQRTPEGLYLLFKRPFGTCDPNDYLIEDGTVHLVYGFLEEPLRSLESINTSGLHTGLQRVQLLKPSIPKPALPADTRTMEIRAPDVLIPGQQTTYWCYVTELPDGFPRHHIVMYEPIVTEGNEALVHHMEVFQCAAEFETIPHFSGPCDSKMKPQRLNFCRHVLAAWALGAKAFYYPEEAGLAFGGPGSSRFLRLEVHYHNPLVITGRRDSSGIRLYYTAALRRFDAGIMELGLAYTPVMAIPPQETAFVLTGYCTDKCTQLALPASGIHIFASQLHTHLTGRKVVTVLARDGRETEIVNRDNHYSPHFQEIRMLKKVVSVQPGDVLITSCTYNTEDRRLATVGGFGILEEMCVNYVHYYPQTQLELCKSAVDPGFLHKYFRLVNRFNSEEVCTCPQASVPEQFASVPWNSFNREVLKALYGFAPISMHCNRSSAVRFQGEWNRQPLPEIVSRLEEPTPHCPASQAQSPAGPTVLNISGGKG
Text: DBH immobilized on the IAM or Glut-P stationary phase was packed into a 1 cm×10 mm guard (Regis Technologies). The guard was placed in a holder and the resulting column connected to a chromatographic system. THE DBH-IAM-IMER and the DBH-Glut-P-IMER was washed with sodium acetate buffer [0.1M, pH 5.5] and sodium acetate buffer [0.1M, pH 6.0], respectively. The eluent from both IMERs was collected in order to determine if any of the DBH was being washed off the columns. The Biorad assay was utilized to measure the amount of non-immobilized enzyme. When the columns were not in use they were washed with sodium acetate buffer at the respective pHs and stored at 4° C.
Pumps 2 and 3 on system 2 and 3 were stopped. 100 μl of a substrate/cofactor mixture is loaded into the injector (i) and the valve is switched to the inject position at the same time the witching valve (SV) is switched such that substrate/product are eluted from the DBH-IMERs and concentrated onto the PBA column of system 2.The second pump was started and mobile phase A was pumped through the PBA column at a flow rate of 0.1 ml/min for 30 sec in order to elute, ascorbic acid and any other by-products produced from the reaction. The pump was then switched to mobile phase B with a flow rate of 0.1 ml/min for 2 min and simultaneously SV1 was switched such that unreacted substrate and product formed were concentrated on the analytical columns of System 3. When the specific contact time elapses the SV2 is switched back to the original position and the pump 3 is started.
The enzymatic activity on the DBH-Glut-P was determined by quantification of the amount of product formed with a given substrate. The temperature of the IMER unless otherwise stated was kept at 37° C. with a column heater. Stock solutions of tyramine were prepared in water. […] The kinetic parameters were determined using standard Michaelis-Menten approach. […] The rates of reaction (Vmax) were calculated using […]mol/mg/min. Results are expressed as mean±standard error of the mean (SEM). […]

[2] = target: T2, dopamine beta-hydroxylase (DBH), non-immobilized (Bos taurus, UniProt P15101); assay: Non-immobilized DBH activity assay, batch incubation with HPLC-fluorescence analysis; assay type: biochemical, bovine
T2 construct: purchased
T2 sequence (P15101 1-610): T1 sequence (P15101 1-610)
Procedure: The solutes were quantitated using fluorescence detection with excitation at λ=265 nm and no cut-off filter for emission. A flow rate of 1 ml/min and ambient temperature were used throughout the study.
Enzymatic conversions utilizing DBH require cupric sulphate, catalase, ascorbic acid and sodium fumarate. An off-line extraction method utilizing solid phase extraction cartridges containing a phenylboronic acid stationary phase was developed. The procedure consisted of the following: 1-ml cartridges were conditioned with 2 ml of methanol followed by 2 ml of sodium phosphate buffer (0.1M, pH 8.4). One ml of reaction mixture was added, the cartridge was then washed with 1 ml sodium phosphate buffer (0.1M, pH 8.4) and the substrate and product were eluted using 1 ml of 0.1N HCl. The eluate was directly injected onto the HPLC system.
(§1) The enzyme was assayed as follows: four different solutions were prepared A, B, C and D (final concentration). (A) 500 μL of enzyme solution (10 μg/ml); B: 275 μL sodium acetate buffer (10 mM, pH 5.5), 50 μL cupric sulphate (5 μM); C: 25 μL catalase (5 μg/ml), 50 μL ascorbic acid (10 mM), 50 μl sodium fumarate (10 mM); D: 50 μl substrate (5 mM). Solution B was added to solution A, the resulting solution was mixed for 1 min. Solution C was added and the resulting solution was mixed for an additional minute. The reaction was started with the addition of the substrate (D), after which the reaction solution was incubated for 5 min at 37° C. in a shaking bath. The reaction was stopped by the addition of 100 μl of cold hexane, the resulting mixture was centrifuged at 3000×g for 10 min and the supernatant transferred to the pre-conditioned phenylboronic acid cartridges in order to extract the product formed and the remaining substrate. Extracted samples were directly injected onto the HPLC under either chiral or achiral conditions.

[3] = target: T3, immobilized DBH (dopamine β-hydroxylase) (Bos taurus, UniProt P15101); assay: Captopril inhibition of immobilized DBH, batch assay (support not specified); assay type: biochemical, bovine
T3 construct: purchased
T3 sequence (P15101 1-610): T1 sequence (P15101 1-610)
Procedure: as §1
The effect of captopril on immobilized DBH kinetics is represented in the form of a reciprocal velocity plot versus the reciprocal of the concentration of tyramine. […] The slope and intercept replots were linear (r>0.995).

[4] = target: T4, dopamine beta-hydroxylase (Homo sapiens, UniProt P09172); conditions: 140 μM captopril; Cu2+ as CuSO4; Palatini et al., 1989; cited from earlier work
T4 sequence (P09172 1-617): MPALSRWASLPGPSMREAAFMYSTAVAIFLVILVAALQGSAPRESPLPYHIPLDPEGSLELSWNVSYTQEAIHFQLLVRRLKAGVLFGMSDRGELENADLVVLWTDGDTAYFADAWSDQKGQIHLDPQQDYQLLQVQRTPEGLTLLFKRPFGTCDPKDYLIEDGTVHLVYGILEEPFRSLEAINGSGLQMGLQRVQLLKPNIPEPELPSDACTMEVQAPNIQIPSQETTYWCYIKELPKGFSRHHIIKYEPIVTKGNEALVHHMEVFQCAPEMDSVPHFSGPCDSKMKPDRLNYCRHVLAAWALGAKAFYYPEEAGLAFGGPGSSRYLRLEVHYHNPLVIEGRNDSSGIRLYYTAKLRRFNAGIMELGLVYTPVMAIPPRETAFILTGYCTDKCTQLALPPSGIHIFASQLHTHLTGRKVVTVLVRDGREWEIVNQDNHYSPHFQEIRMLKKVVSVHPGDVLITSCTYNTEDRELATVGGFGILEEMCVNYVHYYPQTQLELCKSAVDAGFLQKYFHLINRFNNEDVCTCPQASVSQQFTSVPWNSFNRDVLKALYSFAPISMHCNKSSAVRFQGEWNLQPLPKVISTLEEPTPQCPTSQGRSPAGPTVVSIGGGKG

[5] = target: T5, dopamine beta-hydroxylase immobilized onto Glut-P (DBH-Glut-P) (Bos taurus, UniProt P15101); assay: DBH immobilized onto Glut-P stationary phase (DBH-Glut-P, DBH-Glut-P-SP), batch assay; assay type: biochemical, bovine; conditions: hydrochloride
T5 construct: purchased
T5 sequence (P15101 1-610): T1 sequence (P15101 1-610)
Procedure: The enzyme was assayed as follows: four different solutions were prepared A, B, C and D (final concentration). (A) 500 μL of enzyme solution (10 μg/ml); B: 275 μL sodium acetate buffer (10 mM, pH 5.5), 50 μL cupric sulphate (5 μM); C: 25 μL catalase (5 μg/ml), 50 μL ascorbic acid (10 mM), 50 μl sodium fumarate (10 mM); D: 50 μl substrate (5 mM). Solution B was added to solution A, the resulting solution was mixed for 1 min. Solution C was added and the resulting solution was mixed for an additional minute. The reaction was started with the addition of the substrate (D), after which the reaction solution was incubated for 5 min at 37° C. in a shaking bath. […]
The packing material was washed three times with sodium acetate buffer (0.1M, pH 6). […] The enzyme solution (8-10 μg in 1 ml sodium acetate buffer] was added to the packing material, the mixture was vortexed for 2 min and then placed on a shaker/rotator for 6 h at ambient temperature. At the end of 6 h, the suspension was centrifuged, the supernatant decanted and the packing material washed three additional times with the buffer. The amount of residual enzyme was determined utilizing the same procedure as that carried out for the enzyme immobilized onto IAM.

[6] = substrate: COc1cc(C(O)CN)ccc1O; assay: Non-immobilized PNMT activity assay, batch incubation with HPLC-fluorescence analysis; assay type: biochemical, bovine; conditions: other: non-immobilized PNMT; 37.0 °C
Procedure: A mobile phase consisting of potassium phosphate buffer (50 mM) adjusted to pH 2.0 with trifluoroacetic acid was utilized to achieve the desired chromatographic separation of the products from the substrates. The solutes were quantitated using fluorescence detection with excitation at λ=266 nm and emission at λ=380 nm. A flow rate of 0.7 ml/min and ambient temperature were used throughout the study.
(§2) The activity of phenylethanolamine N-methyltransferase was assayed as follows: [final concentration] […] The reaction was started by addition of the 50 μL substrate [1 mM]. The reaction medium was incubated for 10 min at 37° C. in a shaking bath. The resulting solution was centrifuged at 3000×g and the supernatant were directly injected onto the HPLC under the above mentioned conditions.

[7] = substrate: COc1cc(C(O)CN)ccc1O; assay: On-line PNMT immobilized enzyme reactor (PNMT-IMER) HPLC system; assay type: biochemical, bovine; conditions: other: PNMT-IMER, 0.2 ml/min, contact time 20 min, 37° C., n = 2, pH 8.3
Text: PNMT immobilized on the Glut-P stationary phase was packed into a lcm×10 mm guard (Regis Technologies). The guard was put into a holder and the column was placed onto the chromatographic system. The PNMT-IMER was washed with phosphate buffer [0.1M, pH 8.3]. The eluent was collected in order to determine if any of the enzyme was being washed off the column. The Biorad assay was utilized to measure the amount of non-immobilized enzyme. When the column was not in use it was washed with phosphate buffer [0.1M, pH 8.3] and stored at 4° C.
The pump on system 2 is stopped. 100 μl of a substrate/cofactor mixture is loaded into the injector (i) and the value is switched to the inject position at the same time the switching valve (SV) is switched such that the substrate/product are eluted from the PNMT-IMER and concentrated onto the analytical columns of System 2 for the specified contact time. […]
The enzymatic activity on the PNMT-IMER was determined by quantification of the amount of product formed with a given substrate. […]
Enzymatic activity was examined carrying out injections of a series of substrate/cofactor mixtures. […] The kinetic parameters were determined by drawing Lineweaver-Burke plots utilizing Microsoft Excel. Results are expressed as mean±standard error of the mean (SEM). […]

[8] = substrate: COc1cc(C(O)CN)ccc1O; assay: PNMT immobilized on Glut-P stationary phase (PNMT-SP), batch assay; assay type: biochemical, bovine; conditions: other: PNMT-SP, Table 5; pH 8.3; 37.0 °C
Procedure: as §2

[9] = substrate: NCCc1ccc(O)cc1; assay: Non-immobilized DBH activity assay, batch incubation with HPLC-fluorescence analysis; assay type: biochemical, bovine; conditions: other: non-immobilized DBH; Lineweaver-Burke; 37.0 °C
Procedure: (§3) Enzymatic conversions utilizing DBH require cupric sulphate, catalase, ascorbic acid and sodium fumarate. […] The procedure consisted of the following: 1-ml cartridges were conditioned with 2 ml of methanol followed by 2 ml of sodium phosphate buffer (0.1M, pH 8.4). One ml of reaction mixture was added, the cartridge was then washed with 1 ml sodium phosphate buffer (0.1M, pH 8.4) and the substrate and product were eluted using 1 ml of 0.1N HCl. The eluate was directly injected onto the HPLC system.

[10] = substrate: O=C1O[C@H]([C@@H](O)CO)C(O)=C1O; assay: as above; assay type: biochemical, bovine; conditions: other: non-immobilized DBH; Lineweaver-Burke; 37.0 °C
Procedure: as §3

[11] = substrate: NCCc1ccc(O)c(O)c1; assay: purified protein, by the assay type; conditions: other: non-immobilized DBH; Lineweaver-Burke; 37.0 °C

For `C[C@H](CS)C(=O)N1CCC[C@H]1C(=O)O` [Captopril, captopril], the “concentration as low as which the IMER is inhibited” value ([1]; DBH-Glut-P IMER) was 50 µM, the IC50 ([1]; on-line injection of substrate/cofactor/inhibitor mixtures, read-out: IC50 DBH-Glut-P IMER) was 120 µM and the “inhibition of DBH mediated formation of octopamine from tyramine” value ([2]; non-immobilized enzyme, concentrations as low as 150 μM) was “approximately 50%”. For the same molecule, the IC50 ([2]; read-out: IC50 DBH (Non-immobilized)) was 150 µM, the “cupric sulphate concentration achieving reversal of the inhibition” value ([3]; enzyme form not stated) was 2.5 µM and the “type of inhibition with respect to tyramine (reciprocal velocity plot)” value ([3]; immobilized DBH, tyramine as varied substrate) was “noncompetitive inhibition”. For the same molecule, the “inhibition of DBH mediated formation of octopamine from tyramine” value ([3]; immobilized enzyme, concentrations as low as 150 μM) was “approximately 50%” and the “Cu^2+ concentration giving reversal of the inhibition” value [4] was 1.5 µM.

In the case of `Cl.NCCc1ccc(O)cc1` [Tyramine, tyramine hydrochloride], the Vmax [5] is reported as 0.112^− μmol/mg/min.

B1: phenylethanolamine N-methyltransferase (PNMT), non-immobilized (Bos taurus) (protein)
chain: MSGTDRSQAAGAVPDSDPGLAAVSSAYQRFEPRAYLRNNYAPPRGDLSCPDGVGPWKLRCLAQTFATGEVSGRTLIDIGSGPTIYQLLSACAHFEDITMTDFLEVNRQELRLWLREEPGAFDWSVYSQHVCLIEGKGESWQEKECQLRARVKRILPIDVHRPQPLGAGGLAPLPADALVSAFCLEAVSPDLASFQRALDHITTLLRPGGHLLLIGALEESWYLAGEARLAVVPVREEEVREALVRTATRCGICARTPMPAHLQTGVDDVKGIFFTRAQKKVGV
B1 gave a Km [6] of 109 µM.

B2: PNMT-IMER (immobilized phenylethanolamine N-methyltransferase) (Bos taurus) (protein)
chain: B1 chain
Work on B2 yielded a Km [7] of 384 µM.

B3: PNMT-Glut-P stationary phase (PNMT-SP) (Bos taurus) (protein)
chain: B1 chain
For B3, the Km [8] was 152 µM.

B4: dopamine beta-hydroxylase (DBH), non-immobilized (Bos taurus) (protein)
chain: T1 sequence (P15101 1-610)
notes: purchased
Molecule B4 has a Km [9] of 2850 µM, a Km [10] of 620 µM and a Vmax [10] of 0.185 µmol/mg/min. It also gave a Km [11] of 5030 µM.
